The text below walks through data of ChEMBL document CHEMBL1944587, “4-Piperidin-4-ylidenemethyl-benzamides as δ-opioid receptor agonists for CNS indications: identifying clinical candidates” (Bioorg Med Chem Lett, 2012).

A short description of the data set: physchem. To be noted: octanol/water.
Broadly, the logD is the decadic logarithm of the distribution of all forms, ionised or not, between an organic phase and buffer at a given pH. Higher therefore signals a more lipophilic compound. Take `O=C(c1ccc(C(=C2CCN(Cc3cscn3)CC2)c2cccc3cccnc23)cc1)N1CCOCC1`: the logD was 2.1.
`O=C(c1ccc(C(=C2CCN(Cc3cscn3)CC2)c2cccc3cccnc23)cc1)N1CCC(O)CC1` came in with a log distribution coefficient (logD) of 1.9.
`O=C(c1ccc(C(=C2CCN(Cc3cscn3)CC2)c2cccc3cccnc23)cc1)N1CCCC1` returned a pH-dependent lipophilicity (logD) of 2.8.
With `CN1CCN(C(=O)c2ccc(C(=C3CCN(Cc4cscn4)CC3)c3cccc4cccnc34)cc2)CC1`, the log distribution coefficient (logD) was found to be 2.
`CN(C)C(=O)c1ccc(C(=C2CCN(Cc3cscn3)CC2)c2cccc3cccnc23)cc1` displayed a logD of 2.3.
